Data taken from patent US10077258B2, “Substituted pyrimidine compounds as phosphatidylinositol 3-kinase delta inhibitor and use thereof” (NANJING SANHOME PHARMACEUTICAL CO., LTD., priority 2015, dated 2018).

Experiments:
PI3Kδ = molecular target: T1, PI3Kδ (Homo sapiens, UniProt O00329); assay: In vitro kinase activity (LabChip EZ Reader mobility shift), PI3Kδ; assay type: biochemical; conditions: kinase subtype PI3Kδ (p110δ/p85a)
T1 construct: purchased Millipore 14-604-K
Experimental: (§1) Compounds: the compounds prepared in above examples of the present invention, each of which was prepared to a concentration of 10 mM in DMSO and diluted to […], 100 nM, 10 nM, 1 nM, 0.1 nM, 0.01 nM successively.
(§2) Reagents: PI3Kα (p110α(p85a), purchased from Invitrogen, Cat.No. PV4788; PIK3Cδ (p110δ/p85a), purchased from Millipore, Cat.No. 14-604-K; PIK3Cβ (p110β), purchased from Millipore, Cat.No. 14-603-K; PIK3Cγ (pp110γ), purchased from Invitrogen, Cat.No. PR8641C; DMSO, purchased from Sigma; EDTA, purchased from Sigma; 1× kinase buffer (50 mM HEPES, pH 7.5, 0.0015% Brij-35, 10 mM MgCl2, 2 mM DTT), which was prepared before use; termination solution (100 mM HEPES, pH 7.5, 0.015% Brij-35, 0.2% Coating Reagent#3, 50 mM EDTA), which was prepared before use.
(§3) Instruments: LabChip EZ Reader purchased from Caliper, USA.
(§4) 2.1 10 μl solution of each concentration of each compound was placed into 96-well plate and 90 μl of 1× kinase buffer was added. DMSO control group and control group without kinase activity were set up, which all contained 10 μl DMSO and 90 μl of 1× kinase buffer. Each group was mixed well at room temperature for 10 min, and then 5 μl of each group was transferred to a 384-well plate.
(§5) 2.2 Kinases were dissolved in 1× kinase buffer to prepare a 2.5× kinase solution. 10 μl of 2.5× kinase solution was transferred to the 384-well plate containing compounds of different concentrations. 10 μl of 2.5× kinase solution was added to DMSO control group and 10 μl of 1× kinase buffer without kinase was added to control group without kinase activity. The plate was incubated at room temperature for 10 min.
(§6) 2.3 ATP and the polypeptide labeled with FAM were dissolved in 1× kinase buffer to prepare 2.5× substrate solution. Then 10 μl of 2.5× substrate solution was transferred to the 384-well plate and incubated at 28° C. for 1 h.
(§7) 2.4 25 μl of termination solution was added to each well to terminate the reaction.
(§8) 2.5 The plate was placed on the LabChip EZ Reader to read the data of conversion rate and inhibitory rate (1%) was calculated according to formula: I %=(Max−Com)/(Max−Min)×100, wherein Max was the conversion rate of DMSO control group, Min was the conversion rate of control group without kinase activity, Com was the conversion rate of compound treatment group. IC50 was fitted by XLfit processing of the data.

PI3Kα = molecular target: T2, PI3Kα (Homo sapiens, UniProt P42336); assay: In vitro kinase activity (LabChip EZ Reader mobility shift), PI3Kα; assay type: biochemical; conditions: kinase subtype PI3Kα (p110α/p85a)
T2 construct: purchased Invitrogen PV4788
T2 sequence (P42336 whole entry): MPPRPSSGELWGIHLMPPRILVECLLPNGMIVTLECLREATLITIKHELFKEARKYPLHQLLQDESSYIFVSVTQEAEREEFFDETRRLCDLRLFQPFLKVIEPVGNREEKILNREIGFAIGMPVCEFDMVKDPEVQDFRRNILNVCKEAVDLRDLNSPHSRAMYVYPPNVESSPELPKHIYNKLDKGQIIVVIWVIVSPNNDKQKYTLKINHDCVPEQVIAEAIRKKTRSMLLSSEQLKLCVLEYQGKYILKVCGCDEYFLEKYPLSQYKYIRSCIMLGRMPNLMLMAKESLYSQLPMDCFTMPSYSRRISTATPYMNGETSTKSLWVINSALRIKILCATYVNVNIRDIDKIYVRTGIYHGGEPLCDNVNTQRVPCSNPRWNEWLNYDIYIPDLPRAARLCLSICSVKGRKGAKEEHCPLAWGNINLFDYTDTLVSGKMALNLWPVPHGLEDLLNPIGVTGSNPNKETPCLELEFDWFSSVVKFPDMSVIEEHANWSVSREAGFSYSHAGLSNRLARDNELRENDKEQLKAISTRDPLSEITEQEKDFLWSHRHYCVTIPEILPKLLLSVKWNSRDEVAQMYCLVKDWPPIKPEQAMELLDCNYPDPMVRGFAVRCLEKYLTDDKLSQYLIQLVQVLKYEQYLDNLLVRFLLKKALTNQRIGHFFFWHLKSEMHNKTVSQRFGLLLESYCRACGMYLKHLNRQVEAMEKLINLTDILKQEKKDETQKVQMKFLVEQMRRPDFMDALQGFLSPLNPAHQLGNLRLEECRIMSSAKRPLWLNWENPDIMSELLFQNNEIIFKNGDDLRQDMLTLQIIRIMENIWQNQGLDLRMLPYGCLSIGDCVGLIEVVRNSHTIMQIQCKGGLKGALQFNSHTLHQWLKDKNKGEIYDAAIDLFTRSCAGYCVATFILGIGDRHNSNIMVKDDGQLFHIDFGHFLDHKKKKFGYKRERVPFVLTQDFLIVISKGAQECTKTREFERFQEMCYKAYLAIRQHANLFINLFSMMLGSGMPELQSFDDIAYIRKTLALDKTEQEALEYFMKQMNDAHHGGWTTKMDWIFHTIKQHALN
T2 sequence (P27986 whole entry partner): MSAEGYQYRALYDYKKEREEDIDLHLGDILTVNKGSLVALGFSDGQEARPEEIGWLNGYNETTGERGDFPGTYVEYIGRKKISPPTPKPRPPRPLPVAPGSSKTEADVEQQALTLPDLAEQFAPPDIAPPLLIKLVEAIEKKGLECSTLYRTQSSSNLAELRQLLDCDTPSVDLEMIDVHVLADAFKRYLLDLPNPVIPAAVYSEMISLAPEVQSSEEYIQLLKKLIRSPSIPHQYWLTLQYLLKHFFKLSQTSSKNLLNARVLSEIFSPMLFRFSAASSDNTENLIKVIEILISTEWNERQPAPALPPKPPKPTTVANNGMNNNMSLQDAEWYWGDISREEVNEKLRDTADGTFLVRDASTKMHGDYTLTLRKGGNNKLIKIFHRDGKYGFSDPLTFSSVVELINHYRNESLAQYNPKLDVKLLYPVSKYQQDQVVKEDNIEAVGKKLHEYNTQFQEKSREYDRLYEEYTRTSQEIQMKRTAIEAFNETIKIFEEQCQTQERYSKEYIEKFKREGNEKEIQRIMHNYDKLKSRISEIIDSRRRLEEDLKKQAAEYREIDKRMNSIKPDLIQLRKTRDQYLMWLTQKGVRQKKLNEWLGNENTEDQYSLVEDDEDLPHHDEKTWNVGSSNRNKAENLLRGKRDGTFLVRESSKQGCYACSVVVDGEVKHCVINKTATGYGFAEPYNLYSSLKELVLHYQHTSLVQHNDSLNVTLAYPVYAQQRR
Experimental: as §1, §2, §3, §4, §5, §6, §7, §8

PI3Kβ = molecular target: T3, PI3Kβ (Homo sapiens, UniProt P42338); assay: In vitro kinase activity (LabChip EZ Reader mobility shift), PI3Kβ; assay type: biochemical; conditions: kinase subtype PI3Kβ (p110β)
T3 construct: purchased Millipore 14-603-K
T3 sequence (P42338 whole entry): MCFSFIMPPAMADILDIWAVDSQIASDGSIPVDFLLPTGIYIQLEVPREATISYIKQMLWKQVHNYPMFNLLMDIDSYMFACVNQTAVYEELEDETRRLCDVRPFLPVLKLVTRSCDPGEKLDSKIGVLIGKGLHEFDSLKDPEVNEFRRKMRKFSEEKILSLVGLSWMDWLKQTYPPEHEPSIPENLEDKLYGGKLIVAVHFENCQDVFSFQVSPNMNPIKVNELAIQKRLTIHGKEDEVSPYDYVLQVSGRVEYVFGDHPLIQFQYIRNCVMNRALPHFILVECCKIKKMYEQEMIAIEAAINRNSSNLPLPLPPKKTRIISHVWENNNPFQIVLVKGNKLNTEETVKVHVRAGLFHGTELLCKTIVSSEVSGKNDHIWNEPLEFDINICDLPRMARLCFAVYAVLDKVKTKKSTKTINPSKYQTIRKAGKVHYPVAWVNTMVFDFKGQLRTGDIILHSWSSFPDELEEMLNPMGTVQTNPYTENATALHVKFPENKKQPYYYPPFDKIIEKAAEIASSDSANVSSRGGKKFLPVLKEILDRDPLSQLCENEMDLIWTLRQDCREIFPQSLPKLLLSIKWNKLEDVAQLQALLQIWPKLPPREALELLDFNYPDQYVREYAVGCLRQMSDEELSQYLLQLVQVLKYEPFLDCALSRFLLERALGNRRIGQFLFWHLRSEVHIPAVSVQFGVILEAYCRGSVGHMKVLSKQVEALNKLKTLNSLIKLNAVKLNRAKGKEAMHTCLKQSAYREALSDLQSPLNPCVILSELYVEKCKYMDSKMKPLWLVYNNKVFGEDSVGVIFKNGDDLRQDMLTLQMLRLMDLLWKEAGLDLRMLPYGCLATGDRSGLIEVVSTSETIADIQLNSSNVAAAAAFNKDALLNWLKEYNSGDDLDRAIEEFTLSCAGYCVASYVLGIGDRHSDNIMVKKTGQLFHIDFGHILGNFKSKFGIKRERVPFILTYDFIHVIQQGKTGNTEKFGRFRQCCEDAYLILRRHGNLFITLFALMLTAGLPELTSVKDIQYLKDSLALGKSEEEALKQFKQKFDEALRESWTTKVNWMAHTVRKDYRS
T3 sequence (P27986 whole entry partner): as the sequence (P27986 whole entry partner) above
Experimental: as §1, §2, §3, §4, §5, §6, §7, §8

PI3Kγ = molecular target: T4, PI3Kγ (Homo sapiens, UniProt P48736); assay: In vitro kinase activity (LabChip EZ Reader mobility shift), PI3Kγ; assay type: biochemical; conditions: kinase subtype PI3Kγ (p110γ)
T4 construct: purchased Invitrogen PR8641C
T4 sequence (P48736 whole entry): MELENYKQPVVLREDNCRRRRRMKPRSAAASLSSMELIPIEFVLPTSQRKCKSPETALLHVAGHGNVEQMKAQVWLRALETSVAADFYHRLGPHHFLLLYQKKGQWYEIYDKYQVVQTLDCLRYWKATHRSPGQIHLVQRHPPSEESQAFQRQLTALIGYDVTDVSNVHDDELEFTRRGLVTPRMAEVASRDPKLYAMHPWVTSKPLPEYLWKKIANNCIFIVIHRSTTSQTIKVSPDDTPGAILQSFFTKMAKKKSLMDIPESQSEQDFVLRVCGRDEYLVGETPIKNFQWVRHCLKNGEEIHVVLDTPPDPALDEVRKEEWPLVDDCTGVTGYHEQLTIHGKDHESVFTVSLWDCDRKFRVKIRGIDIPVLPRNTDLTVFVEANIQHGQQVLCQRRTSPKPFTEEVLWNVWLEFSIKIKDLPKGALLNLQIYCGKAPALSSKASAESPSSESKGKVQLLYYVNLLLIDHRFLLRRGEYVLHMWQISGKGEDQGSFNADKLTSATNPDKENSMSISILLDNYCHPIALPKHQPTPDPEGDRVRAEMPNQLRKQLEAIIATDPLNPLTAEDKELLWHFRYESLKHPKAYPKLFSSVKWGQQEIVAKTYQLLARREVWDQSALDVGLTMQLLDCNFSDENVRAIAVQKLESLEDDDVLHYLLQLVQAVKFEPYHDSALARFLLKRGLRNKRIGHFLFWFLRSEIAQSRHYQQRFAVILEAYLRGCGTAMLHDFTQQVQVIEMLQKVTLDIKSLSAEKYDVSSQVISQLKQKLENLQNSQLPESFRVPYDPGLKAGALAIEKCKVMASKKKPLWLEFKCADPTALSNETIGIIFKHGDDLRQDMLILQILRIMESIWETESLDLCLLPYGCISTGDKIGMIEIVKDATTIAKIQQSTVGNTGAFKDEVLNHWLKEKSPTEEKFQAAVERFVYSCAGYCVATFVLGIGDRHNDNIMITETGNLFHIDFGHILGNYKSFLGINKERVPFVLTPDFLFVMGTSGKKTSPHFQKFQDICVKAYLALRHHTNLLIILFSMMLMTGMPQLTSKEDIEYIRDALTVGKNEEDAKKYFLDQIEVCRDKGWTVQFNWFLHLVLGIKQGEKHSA
Experimental: as §1, §2, §3, §4, §5, §6, §7, §8

SU-DHL-5 lymphoma cells = assay: In vitro cell activity, CellTiter-Glo cell viability, SU-DHL-5; assay type: cell-based; conditions: Homo sapiens, SU-DHL-5 lymphoma cell line, 72 h
Experimental: (§9) Compounds: the compounds prepared in above examples of the present invention, each of which was prepared to a concentration of 10 mM in DMSO and diluted 3 times to 20000.00 nM, 6666.67 nM, 2222.22 nM, 740.74 nM, 246.91 nM, 27.43 nM, 9.14 nM, 3.05 nM successively.
(§10) The lymphoma cell lines SU-DHL-5 and SU-DHL-6 were purchased from the American Type Culture Collection (ATCC).
(§11) Reagents: PRMI-1640, purchased from Invitrogen (USA); FBS, purchased from Invitrogen (USA); EDTA, purchased from Sigma (USA); CellTiter-Glo® Luminescent Cell Viability Assay Kit, purchased from Progema (USA); Backseal membrane, purchased from Perkin Elmer (USA).
(§12) The cells were thawed in a 37° C. water bath and then transferred to 15 ml preheated medium. The cells were centrifuged at 1000 rpm for 5 min and the medium was discarded. The cells were resuspended in 15 ml fresh medium and transferred to T75 culture flask and incubated in an incubator at 37° C. with 5% CO2. The medium was replaced with fresh medium 24 h later.
(§13) The resuscitated cells above were transferred to a 50 ml sterile centrifuge tube and centrifuged at 1000 rpm for 5 min. The medium was discarded, and the cells were dispersed uniformly and counted. The appropriate cell concentration was adjusted in 15 ml fresh medium and added to T75 culture flask. The flask was incubated in an incubator at 37° C. with 5% CO2.
When the cells in the T75 culture flask grew to 1×10^5˜1×10^6 cells/ml, the cells were resuspended with fresh medium (RPMI-1640+20% FBS) and counted. The resuspended cells were adjusted to the following eight concentrations: 1×10^4 cells/ml, 2×10^4 cells/ml, 3×10^4 cells/ml, 5×10^4 cells/ml, 8×10^4 cells/ml, 1×10^5 cells/ml, 1.5×10^5 cells/ml, and 2×10^5 cells/ml. The above cell suspensions were added to 96-well cell culture plate, 100 μl each well (1×10^3 cells/ml, 2×10^3 cells/ml, 3×10^3 cells/ml, 5×10^3 cells/ml, 8×10^3 cells/ml, 1×10^4 cells/ml, 1.5×10^4 cells/ml, and 2×10^4 cells/ml, respectively). Each concentration was done double in three plates. 72 h later, 100 μl CellTiter-Glo® Luminescent Cell Viability Assay buffer was added to test wells and shaken gently. 10 min later, the Assay plate was attached at the bottom by Backseal membrane and placed on Envison to detect the fluorescence reading. Cell survive (%) was calculated according to the formula: cell survive (%)=(Com−Min)/(Max−Min), wherein Max was the reading of solvent control group, Min was the reading of control group without cells, and Com was the reading of compound treatment group.

SU-DHL-6 lymphoma cells = assay: In vitro cell activity, CellTiter-Glo cell viability, SU-DHL-6; assay type: cell-based; conditions: Homo sapiens, SU-DHL-6 lymphoma cell line, 72 h
Experimental: as §9, §10, §11, §12, §13
When the cells in the T75 culture flask grew to 1×10^5˜1×10^6 cells/ml, the cells were resuspended with fresh medium (RPMI-1640+20% FBS) and counted. […] 10 min later, the Assay plate was attached at the bottom by Backseal membrane and placed on Envison to detect the fluorescence reading. Cell survive (%) was calculated according to the formula: cell survive (%)=(Com−Min)/(Max−Min), wherein Max was the reading of solvent control group, Min was the reading of control group without cells, and Com was the reading of compound treatment group.

T1 sequence (O00329 whole entry): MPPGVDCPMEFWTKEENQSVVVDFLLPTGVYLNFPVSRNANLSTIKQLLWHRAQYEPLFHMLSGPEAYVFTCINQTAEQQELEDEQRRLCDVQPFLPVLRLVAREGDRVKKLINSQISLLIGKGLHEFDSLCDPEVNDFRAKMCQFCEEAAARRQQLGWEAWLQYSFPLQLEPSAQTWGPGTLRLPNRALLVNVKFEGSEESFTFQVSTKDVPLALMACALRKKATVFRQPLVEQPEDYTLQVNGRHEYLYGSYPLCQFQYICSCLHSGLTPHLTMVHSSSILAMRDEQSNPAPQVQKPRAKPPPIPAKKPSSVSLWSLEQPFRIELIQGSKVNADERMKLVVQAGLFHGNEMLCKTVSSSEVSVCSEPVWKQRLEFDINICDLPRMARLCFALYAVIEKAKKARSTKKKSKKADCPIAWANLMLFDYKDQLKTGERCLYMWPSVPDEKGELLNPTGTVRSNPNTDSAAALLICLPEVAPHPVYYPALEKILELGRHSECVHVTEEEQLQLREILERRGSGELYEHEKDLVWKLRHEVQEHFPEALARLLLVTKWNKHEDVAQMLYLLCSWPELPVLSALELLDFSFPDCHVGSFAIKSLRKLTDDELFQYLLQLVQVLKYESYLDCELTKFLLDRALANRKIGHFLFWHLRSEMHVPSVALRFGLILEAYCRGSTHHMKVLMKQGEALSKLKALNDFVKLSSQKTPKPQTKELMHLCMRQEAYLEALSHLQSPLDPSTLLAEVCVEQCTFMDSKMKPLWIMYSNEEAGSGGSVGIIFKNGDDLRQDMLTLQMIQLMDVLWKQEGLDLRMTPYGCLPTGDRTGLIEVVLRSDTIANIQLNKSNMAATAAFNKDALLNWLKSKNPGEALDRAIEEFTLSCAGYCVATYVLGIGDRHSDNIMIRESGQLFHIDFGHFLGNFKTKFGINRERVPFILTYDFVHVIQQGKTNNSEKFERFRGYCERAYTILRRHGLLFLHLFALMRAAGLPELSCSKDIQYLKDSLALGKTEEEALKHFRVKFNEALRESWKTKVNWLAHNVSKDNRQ
T1 sequence (P27986 whole entry partner): as the sequence (P27986 whole entry partner) above

IC50 (PI3Kδ) [nM] | IC50 (PI3Kα) [nM] | IC50 (PI3Kβ) [nM] | IC50 (PI3Kγ) [nM] | IC50 (SU-DHL-5 lymphoma cells) [µM] | IC50 (SU-DHL-6 lymphoma cells) [µM] | Structure (SMILES)
9.2 | > 1000 | 546 | 83 | 1.41 | 0.014 | CC(Nc1nc(N)nc(N)c1C#N)c1c(-c2ccccc2)oc2ccccc2c1=O (stereo not drawn) [Example 4, 2,4-Diamino-5-cyano-6-(1-(4-oxo-2-phenyl-4H-chromen-3-yl)ethylamino) pyrimidine]
4.4 | 1070 | 569 | 441 | 0.81 | 0.04 | CC(Nc1ncnc(N)c1C#N)c1c(-c2ccccc2)[nH]c2ccccc2c1=O (stereo not drawn) [Example 10, 4-Amino-5-cyano-6-((1-(4-oxo-2-phenyl-1,4-dihydroquinolin-3-yl)ethyl)amino) pyrimidine]
3.2 | > 1000 | 546 | 905 | 4.63 | 0.16 | N#Cc1c(N)ncnc1NCc1c(-c2ccccc2)[nH]c2c(Cl)cccc2c1=O [Example 14, 4-Amino-5-cyano-6-(((8-chloro-4-oxo-2-phenyl-1,4-dihydroquinolin-3-yl)methyl)amino)pyrimidine]
